The source of these data is PMC6335420, “The cell cycle regulator GpsB functions as cytosolic adaptor for multiple cell wall enzymes” (Nature Communications, 2019).

Non-standard residues stand in square brackets, D forms with d. Residues, ends and D or L forms follow the SMILES beside them. No end group written: not given here. *: point of attachment. Fluorescein(5-Mal) = O=C1OC2(c3ccc(O)cc3Oc3cc(O)ccc32)c2ccc(N3C(=O)CC(*)C3=O)cc21; 5FAM = O=C1OC2(c3ccc(O)cc3Oc3cc(O)ccc32)c2ccc(C(=O)*)cc21; Nle = CCCC[C@H](N)C(=O)O

Experiment [1] has as its system LmGpsB. The experiment is described as follows: BACTH (bacterial two-hybrid) interaction with LmGpsB. Format: cell-based, Listeria monocytogenes. As to conditions: E. coli BTH101, 30 °C, photographed after 24 and 48 h; LmPBPA1 variants as T25-PBPA1ΔGT-TP. An excerpt:
The BACTH system[63] was used for analysis of protein:protein interactions. First, LmGpsB was screened against LmPBPA1 (lmo1892) variants to identify residues in LmPBPA1 that are important for binding LmGpsB. To facilitate screening, we used a T25 fragment of Bordetella pertussis adenylate cyclase that had been fused to the N-terminal 91 amino acids of LmPBPA1 to create a T25-LmPBPA1 fusion containing the N-terminal cytoplasmic mini-domain and the transmembrane helix, but lacking lacking the extracellular glycosyltransferase and transpeptidase domains (T25-PBPA1ΔGT-TP) in plasmid pSH437[21]. LmPBPA1 residues that corresponded to the BsGpsB binding motif of BsPBP1 (Thr7, Arg8, Tyr11, Arg12) and additional positively charged amino acids (Lys14, Lys20, Lys21, Lys22, Lys25, Arg26, Lys28 and Arg29) in T25-PBP A1ΔGT-TP were replaced with alanine prior to screening against GpsB-T18. The pSH437 plasmid was mutated by Quikchange mutagenesis using the primer pairs SHW744/SHW754 (T7A, pSH485), SHW746/SHW747 (R8A, pSH486), SHW755/SHW756 (Y11A, pSH487), SHW748/SHW749 (R12A, pSH488), SHW757/SHW758 (K14A, pSH489), SHW759/SHW760 (K20A, pSH490), SHW761/SHW762 (K21A, pSH491), SHW763/SHW764 (K22A, pSH492), SHW765/SHW766 (K25A, pSH493), SHW767/SHW768 (R26A, pSH494), SHW769/SHW770 (K28A, pSH495) and SHW771/SHW772 (R29A, pSH496).
pJR164 and pJR169 were constructed by cloning sepF (primers JR334/JR335 and XbaI/KpnI digestion) into pKT25 and p25-N, respectively. pJR165 and pJR170 were generated by cloning ezrA into pKT25 and p25-N, respectively, using primers JR339/JR340 and XbaI/KpnI for digestion. pJR172 and pJR174 were obtained by cloning zapA into pKT25 and p25-N, respectively, using primers JR337/JR338 and PstI/KpnI. pJR213 was constructed by amplification of divIB with primers JR353/JR354 and cloning into pKT25 using XbaI/KpnI. pJR214 was generated by PCR amplification of divIC with primers JR355/JR356 and cloning into pKT25 using XbaI/KpnI. mreBH was amplified by PCR using oligonucleotides JR368/JR369 and cloned into pKT25 and p25-N using XbaI/KpnI, resulting in pJR233 and pJR236, respectively. pJR242 and pJR243 were obtained by cloning mreC into pKT25 and p25-N, respectively, using primers JR364/JR365 and PstI/KpnI digestion. pbpA2 was cloned into pKT25 using oligonucleotides SHW153/SHW154 and XbaI/KpnI to create pJR250. pbpB1 was amplified with primers SHW157/SHW158 and cloned with SmaI/EcoRI into pKT25, yielding pSH236. pbpB2 was amplified with primers SHW155/SHW156 and cloned into pKT25 after PstI/BamHI digestion, yielding plasmid pSH235. pbpB3 was amplified using primers SHW159/160 and cloned by PstI/BamHI digestion into pKT25, resulting in pSH237. Finally, pSH484 was obtained by removing the N-terminal domain from gpsB present on plasmid pSH226 in a PCR with the primer pair SHW752/SHW753.
Plasmids encoding the respective genes fused to the N- or C-termini of the T18- or the T25-fragment of the Bordetella pertussis adenylate cyclase were co-transformed into E. coli BTH101. Transformants were selected on LB agar plates containing ampicillin (100 µg^−1mL^−1), kanamycin (50 µg^−1mL^−1), X-Gal (40 µg^−1mL^−1) and IPTG (0.1 mM) and photographs were taken after 24 and 48h growth at 30 °C. The BACTH experiments in Fig. 2b and Supplementary Figure 3C, D were repeated at least twice.

Experiment [2] deals with T1, BsGpsB1-68Lys32Glu (Bacillus subtilis, UniProt P0CI74, K32E).
T1 construct: His6 (N, cleaved yes); made in house; host or cells: E. coli BL21(DE3)
The experiment is described as follows: Fluorescence polarisation binding to BsGpsB1-68Lys32Glu. As to conditions: FP, relative to wild-type LmPBPA1 peptide. From the text: (§1) 75 the BsGpsB5-64:BsPBP11-17 complex.

Experiment [3] has as its target Fluorescein-LmPBPA11-20 wildtype (L. monocytogenes EGD-e). The experiment is described as follows: fluorescence polarisation. (Fluorescence polarisation rises when a labelled molecule tumbles more slowly, as on binding a larger partner.)
The target of experiment [4] is T2, BsGpsB1-68Asp31Ala (Bacillus subtilis, UniProt P0CI74, D31A).
T2 construct: Glu17Ala, Asp31Ala and Asp35Ala mutations were introduced to the BsGpsB1-68 expression construct plasmid; His6 (N, cleaved yes); made in house; host or cells: E. coli BL21(DE3)
The experiment can be described thus: Fluorescence polarisation binding to BsGpsB1-68Asp31Ala. As to conditions: FP, BsGpsB Asp31Ala relative to wild-type BsGpsB1-68.
Description: as §1

The target in experiment [5] is T3, BsGpsB1-68Tyr25Phe (Bacillus subtilis, UniProt P0CI74, Y25F).
T3 construct: correspond to BsGpsB1-68^Asp31Ala and BsGpsB1-68^Tyr25Phe mutants, respectively; His6 (N, cleaved yes); made in house; host or cells: E. coli BL21(DE3)
The experiment is described as follows: Fluorescence polarisation binding to BsGpsB1-68Tyr25Phe. As to conditions: FP, BsGpsB Tyr25Phe relative to wild-type BsGpsB1-68.
Description: as §1

In experiment [6] the target is full-length BsPBP1. The experiment can be described thus: SPR binding to immobilised full-length BsPBP1. As to conditions: SPR, PBP1-coated chip; full-length GpsB data fit 1:1 only over limited concentration range (avidity), BsGpsB1-68 supports 1:1; peer review file; read-out: affinity / Kd by SPR. The arrangement: species or system Bacillus subtilis. An excerpt: BsPBP1 and BsPBP1_17-914 were immobilised on the surface of a CM5 chip (GE Healthcare). For the BsPBP1/YrrSΔ13-16 titration 800 RUs of BsPBP1 were immobilised on the chip surface; for the BsPBP1/BsGpsB titration 1200 RUs of BsPBP1 were immobilised. YrrSΔ13-16, which lacks residues 13–16 in the cytoplasmic domain, was used in these experiments to minimise non-specific interactions with the chip matrix; binding of YrrSΔ13-16 to the reference surface was negligible and the deletion of residues 13–16 leaves the GpsB-binding motif intact. The YrrSΔ13-16 titration was carried out in single-cycle mode, without regenerating the surface between successive injections of protein, because harsh reagents were necessary for full surface regeneration.

In experiment [7] the target is T4, BsGpsB_(1-68) (B. subtilis, UniProt P0CI74 1-68).
T4 construct: GpsB, Bacillus subtilis, residues 1-68; also called N-terminal domain of BsGpsB; source: E. coli, purified (Ni-NTA, thrombin, size exclusion)
T4 sequence (looked up): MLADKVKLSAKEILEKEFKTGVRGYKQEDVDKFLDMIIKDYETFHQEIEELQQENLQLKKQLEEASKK
The experiment can be described thus: fluorescence polarisation; GpsB protein titrated into fluorescently labelled peptide; 10 mM Tris.HCl pH 8.0, 250 mM NaCl, 0.1% reduced Triton X-100; fit to a 1:1 interaction model. As to conditions: both partners purified.

T3 sequence (P0CI74 1-68 Y25F): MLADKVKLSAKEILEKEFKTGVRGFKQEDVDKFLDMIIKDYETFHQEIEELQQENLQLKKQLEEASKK
T2 sequence (P0CI74 1-68 D31A): as the sequence (P0CI74 1-68 Y25F) above, with F25Y, D31A counted along it
T1 sequence (P0CI74 1-68 K32E): as the sequence (P0CI74 1-68 Y25F) above, with F25Y, K32E counted along it

In the case of `CSCC[C@H](NC(=O)[C@H](CO)NC(=O)CN)C(=O)N[C@@H](C)C(=O)N[C@@H](CC(=O)O)C(=O)N[C@@H](CCCCN)C(=O)N1CCC[C@H]1C(=O)N[C@@H](CCC(N)=O)C(=O)N[C@H](C(=O)N[C@@H](C)C(=O)N[C@@H](CO)C(=O)N[C@@H](CCC(N)=O)C(=O)N[C@@H](Cc1ccc(O)cc1)C(=O)N[C@@H](CCCNC(=N)N)C(=O)N[C@@H](CC(N)=O)C(=O)N[C@@H](CCCCN)C(=O)N[C@@H](CCC(N)=O)C(=O)N[C@@H](CO)C(=O)NCC(=O)NCC(=O)N[C@@H](CSC1CC(=O)N(c2ccc3c(c2)C(=O)OC32c3ccc(O)cc3Oc3cc(O)ccc32)C1=O)C(=O)N[C@@H](CCCCN)C(=O)O)[C@@H](C)O` (stereo partly drawn) [Fluorescein-LmPBPA11-20 Arg8Ala] (H-GSMADKPQTASQYRNKQSGGC(Fluorescein(5-Mal))K-OH; N-terminus and C-terminus assumed), the “BACTH interaction with LmGpsB” value in experiment [1] is reported as “significant negative impact”. Further, the “reduction in affinity for BsGpsB1-68Lys32Glu” value in experiment [2] is listed as over 15 fold.

With “LmGpsB1-73 (from UniProt Q8Y614 1-73) (domain or fragment)”, the Kd in experiment [3] came to 200 µM.

Turning to `CCCC[C@H](NC(=O)c1ccc2c(c1)C(=O)OC21c2ccc(O)cc2Oc2cc(O)ccc21)C(=O)N[C@H](C(=O)N[C@@H](CC(N)=O)C(=O)N[C@@H](CCCC)C(=O)N[C@@H](CO)C(=O)N[C@@H](CCCNC(=N)N)C(=O)N[C@H](C(=O)N[C@@H](CCC(=O)O)C(=O)N[C@@H](CCCNC(=N)N)C(=O)N[C@@H](CCCNC(=N)N)C(=O)N[C@@H](CCCCN)C(=O)N[C@@H](C)C(=O)N[C@@H](CCC(N)=O)C(=O)N[C@@H](CC(N)=O)C(=O)N[C@@H](CC(C)C)C(=O)N[C@@H](Cc1ccc(O)cc1)C(=O)N[C@@H](CCC(=O)O)C(=O)N[C@@H](CC(=O)O)C(=O)N[C@@H](CCC(N)=O)C(=O)N[C@@H](CC(N)=O)C(=O)N[C@@H](C)C(=O)O)C(C)C)[C@@H](C)O` [Fluoroescein-BsYpbE1-21] (5FAM-[Nle]TN[Nle]SRVERRKAQNLYEDQNA-OH; N-terminus and C-terminus assumed), the “reduction in affinity on GpsB mutation” value in experiment [4] and in experiment [5] was ~ 40 fold in each case.

On to `CSCC[C@H](NC(=O)[C@H](CO)NC(=O)CN)C(=O)N[C@@H](C)C(=O)N[C@@H](CC(=O)O)C(=O)N[C@@H](CCCCN)C(=O)N1CCC[C@H]1C(=O)N[C@@H](CCC(N)=O)C(=O)N[C@H](C(=O)N[C@@H](CCCNC(=N)N)C(=O)N[C@@H](CO)C(=O)N[C@@H](CCC(N)=O)C(=O)N[C@@H](Cc1ccc(O)cc1)C(=O)N[C@@H](C)C(=O)N[C@@H](CC(N)=O)C(=O)N[C@@H](CCCCN)C(=O)N[C@@H](CCC(N)=O)C(=O)N[C@@H](CO)C(=O)NCC(=O)NCC(=O)N[C@@H](CSC1CC(=O)N(c2ccc3c(c2)C(=O)OC32c3ccc(O)cc3Oc3cc(O)ccc32)C1=O)C(=O)N[C@@H](CCCCN)C(=O)O)[C@@H](C)O` (stereo partly drawn) [Fluorescein-LmPBPA11-20 Arg12Ala] (H-GSMADKPQTRSQYANKQSGGC(Fluorescein(5-Mal))K-OH; N-terminus and C-terminus assumed), for which the “BACTH interaction with LmGpsB” value in experiment [1] is recorded as “significant negative impact”. For the same molecule, the “reduction in affinity for BsGpsB1-68Lys32Glu” value in experiment [2] is on record as ~ 4 fold.

As to `CSCC[C@H](NC(=O)[C@H](CO)NC(=O)CN)C(=O)NCC(=O)N[C@@H](CC(N)=O)C(=O)N[C@@H](CC(N)=O)C(=O)N[C@@H](CCC(N)=O)C(=O)N[C@@H](CO)C(=O)N[C@@H](CCCNC(=N)N)C(=O)N[C@@H](Cc1ccc(O)cc1)C(=O)N[C@@H](CCC(=O)O)C(=O)N[C@@H](CC(N)=O)C(=O)N[C@@H](CCCNC(=N)N)C(=O)N[C@@H](CC(=O)O)C(=O)N[C@@H](CCCCN)C(=O)N[C@@H](CCCNC(=N)N)C(=O)N[C@@H](CCCNC(=N)N)C(=O)N[C@@H](CCCCN)C(=O)N[C@@H](C)C(=O)N[C@@H](CC(N)=O)C(=O)N[C@@H](CSC1CC(=O)N(c2ccc3c(c2)C(=O)OC32c3ccc(O)cc3Oc3cc(O)ccc32)C1=O)C(=O)NCC(=O)O` (stereo partly drawn) [Fluoroescein-BsYrrS1-18] (H-GSMGNNQSRYENRDKRRKANC(Fluorescein(5-Mal))G-OH; N-terminus and C-terminus assumed), the “reduction in affinity on GpsB mutation” value in experiment [4] and in experiment [5] was 7 fold each time.

B1: BsGpsB1-68: N-terminal domain of B. subtilis GpsB (protein)
chain: T4 sequence (looked up)
modifications: left off: His6, N-terminal, cleaved
notes: N-terminal domain of B. subtilis GpsB
As for B1, the Kd in experiment [6] amounted to 40 µM.

B2: BsPBP1_(1-32)^Arg28Ala, TAMRA-labelled at position 16 (peptide, UniProt P39793 1-32, looked up)
peptide: MSDQFNSREARRKANC(TAMRA‑maleimide)KSSPSPKKGKKAKKGG
notes: PBP1, Bacillus subtilis, residues 1-32; source: E. coli, His-tagged MBP fusion purified (Ni-NTA), labelled, TEV-cleaved, ultrafiltration
B2: the binding result in experiment [7] is “binds”.

B3: BsYrrS_(1-18), fluorescein-labelled (peptide, UniProt O32031 1-18, looked up)
peptide: MSNNQSRYENRDKRRKAN
modifications: also: fluorescein label, position not given here
notes: YrrS, Bacillus subtilis, residues 1-18; also called entire cytoplasmic mini-domain of BsYrrS
In turn, B3 had a Kd in experiment [7] of 430 µM.
